Earlier results in US8158648B2, “Heteroaryl 11-beta hydroxysteroid dehydrogenase type I inhibitors” (priority 2005, dated 2012).

Test system: hepatic glucose production
Settings: mildly overweight individuals with type 2 diabetes, seven days, versus placebo

SMILES: CC1(C)[C@@H](OC(=O)CCC(=O)O)CC[C@]2(C)[C@H]3C(=O)C=C4[C@@H]5C[C@@](C)(C(=O)O)CC[C@]5(C)CC[C@@]4(C)[C@]3(C)CC[C@@H]12 [carbenoxolone]
- hepatic glucose production: decrease in hepatic glucose production
